Tested on: IL-12
Assay: Human in vitro assay: inhibition of IL-12 production in IFNγ/LPS- or IFNγ/SAC-stimulated human PBMC or THP-1 cells (ELISA)
Type: cell-based
Conditions: read-out: IC50 Range (representative in vitro IC50 data)
Summary of the method: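 Sandwich ELISA for IL-12 (p70, p40) on supernatants collected 18 h after stimulation gave IC50 values; MTS monitored viability. THP-1 cells: IFNγ 100 U/mL priming 22 h, SAC 0.025%. PBMC: IFNγ 30 U/mL for 22 h plus LPS 1 μg/mL, or IFNγ 100 U/mL plus SAC 0.01%. Final DMSO 0.25%.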

IC50 [nM] | SMILES
< 1000 | CO/N=C(\C)c1cccc(NC(=O)c2cc(OCCN3CCOCC3)nc(N3CCOCC3)n2)c1 [Compound 154, (E)-N-(3-(1-(methoxyimino)ethyl)phenyl)-2-morpholino-6-(2-morpholinoethoxy)pyrimidine-4-carboxamide]
< 1000 | CN(C)c1cccc(NC(=O)c2cc(OCCN3CCOCC3)cc(N3CCOCC3)n2)c1 [Compound 155, 6-Morpholin-4-yl-4-(2-morpholin-4-yl-ethoxy)-pyridine-2-carboxylic acid (3-dimethylamino-phenyl)-amide]
< 1000 | COCCN(C)c1cc(N2CCOCC2)cc(C(=O)Nc2ccc3[nH]c(C)c(C)c3c2)n1 [Compound 156, 6-[(2-Methoxy-ethyl)-methyl-amino]-4-morpholin-4-yl-pyridine-2-carboxylic acid (2,3-dimethyl-1H-indol-5-yl)-amide]
≥ 1000 | COCCN(C)c1cc(N2CCOCC2)cc(C(=O)Nc2cccc(N(C)C)c2)n1 [Compound 157, 6-[(2-Methoxy-ethyl)-methyl-amino]-4-morpholin-4-yl-pyridine-2-carboxylic acid (3-dimethylamino-phenyl)-amide]
< 1000 | COCCN(C)c1cc(C(=O)Nc2ccc3[nH]c(C)c(C)c3c2)nc(N2CCOCC2)c1 [Compound 158, 4-[(2-Methoxy-ethyl)-methyl-amino]-6-morpholin-4-yl-pyridine-2-carboxylic acid (2,3-dimethyl-1H-indol-5-yl)-amide]
< 1000 | COCCN(C)c1cc(C(=O)Nc2cccc(N(C)C)c2)nc(N2CCOCC2)c1 [Compound 159, 4-[(2-Methoxy-ethyl)-methyl-amino]-6-morpholin-4-yl-pyridine-2-carboxylic acid (3-dimethylamino-phenyl)-amide]
< 1000 | CONc1cc(C(=O)Nc2cccc(N(C)C)c2)nc(N2CCOCC2)c1 [Compound 160, 4-Methoxyamino-6-morpholin-4-yl-pyridine-2-carboxylic acid (3-dimethylamino-phenyl)-amide]
< 1000 | CONc1cc(C(=O)Nc2ccc3[nH]c(C)c(C)c3c2)nc(N2CCOCC2)c1 [Compound 161, 4-Methoxyamino-6-morpholin-4-yl-pyridine-2-carboxylic acid (2,3-dimethyl-1H-indol-5-yl)-amide]
≥ 1000 | COCCN(C)c1cc(C(=O)NCCN(C)C)nc(N2CCOCC2)n1 [Compound 162, 6-[(2-Methoxy-ethyl)-methyl-amino]-2-morpholin-4-yl-pyrimidine-4-carboxylic acid (2-dimethylamino-ethyl)-amide]
≥ 1000 | O=C(Nc1nnc(C2CC2)s1)c1cc(OCCN2CCOCC2)nc(N2CCOCC2)n1 [Compound 163, 2-Morpholin-4-yl-6-(2-morpholin-4-yl-ethoxy)-pyrimidine-4-carboxylic acid (5-cyclopropyl-[1,3,4]thiadiazol-2-yl)-amide]
≥ 1000 | CCN(CC)Cc1cc(NC(=O)c2cc(N(C)CCOC)nc(N3CCOCC3)n2)ccc1O [Compound 164, 6-[(2-Methoxy-ethyl)-methyl-amino]-2-morpholin-4-yl-pyrimidine-4-carboxylic acid (3-diethylaminomethyl-4-hydroxy-phenyl)-amide]
≥ 1000 | COCCN(C)c1cc(C(=O)Nc2ccc(NC(C)=O)cc2)nc(N2CCOCC2)n1 [Compound 165, 6-[(2-Methoxy-ethyl)-methyl-amino]-2-morpholin-4-yl-pyrimidine-4-carboxylic acid (4-acetylamino-phenyl)-amide]
≥ 1000 | COCCN(C)c1cc(C(=O)Nc2cccc(N(C)C(C)=O)c2)nc(N2CCOCC2)n1 [Compound 166, 6-[(2-Methoxy-ethyl)-methyl-amino]-2-morpholin-4-yl-pyrimidine-4-carboxylic acid [3-(acetyl-methyl-amino)-phenyl]-amide]
< 1000 | Cc1[nH]c2ccc(NC(=O)c3cccc(N4CCOCC4)n3)cc2c1C [Compound 168, 6-Morpholin-4-yl-pyridine-2-carboxylic acid (2,3-dimethyl-1H-indol-5-yl)-amide]
< 1000 | CC(=O)N1CCN(c2cc(C(=O)Nc3ccc4[nH]c(C)c(C)c4c3)nc(N3CCOCC3)c2)CC1 [Compound 169, 4-(4-Acetyl-piperazin-1-yl)-6-morpholin-4-yl-pyridine-2-carboxylic acid (2,3-dimethyl-1H-indol-5-yl)-amide]
≥ 1000 | Cc1nccc(-c2cccc(NC(=O)c3cc(OCCN4CCOCC4)nc(N4CCOCC4)n3)c2)n1 [Compound 170, 2-Morpholin-4-yl-6-(2-morpholin-4-yl-ethoxy)-pyrimidine-4-carboxylic acid [3-(2-methyl-pyrimidin-4-yl)-phenyl]-amide]
< 1000 | Cc1[nH]c2ccc(NC(=O)c3cc(N4CCC(O)CC4)cc(N4CCOCC4)n3)cc2c1C [Compound 171, 4-Hydroxy-6′-morpholin-4-yl-3,4,5,6-tetrahydro-2H-[1,4′]bipyridinyl-2′-carboxylic acid (2,3-dimethyl-1H-indol-5-yl)-amide]

IC50 [nM] | SMILES
< 1000 | Cc1[nH]c2ccc(NC(=O)c3cc(N4CCC5(CC4)OCCO5)nc(N4CCOCC4)n3)cc2c1C [Compound 172, 6-(1,4-Dioxa-8-aza-spiro[4.5]dec-8-yl)-2-morpholin-4-yl-pyrimidine-4-carboxylic acid (2,3-dimethyl-1H-indol-5-yl)-amide]
< 1000 | Cc1[nH]c2ccc(NC(=O)c3cc(N4CCC(O)CC4)nc(N4CCOCC4)n3)cc2c1C [Compound 173, 6-(4-Hydroxy-piperidin-1-yl)-2-morpholin-4-yl-pyrimidine-4-carboxylic acid (2,3-dimethyl-1H-indol-5-yl)-amide]
< 1000 | CCc1c[nH]c2ccc(NC(=O)c3cc(N4CCC(O)CC4)cc(N4CCOCC4)n3)cc12 [Compound 174, 4-Hydroxy-6′-morpholin-4-yl-3,4,5,6-tetrahydro-2H-[1,4′]bipyridinyl-2′-carboxylic acid (3-ethyl-1H-indol-5-yl)-amide]
< 1000 | CCc1c[nH]c2ccc(NC(=O)c3cc(N4CCC5(CC4)OCCO5)nc(N4CCOCC4)n3)cc12 [Compound 175, 6-(1,4-Dioxa-8-aza-spiro[4.5]dec-8-yl)-2-morpholin-4-yl-pyrimidine-4-carboxylic acid (3-ethyl-1H-indol-5-yl)-amide]
< 1000 | CCOC(=O)C1CCN(c2cc(C(=O)Nc3ccc4[nH]c(C)c(C)c4c3)nc(N3CCOCC3)c2)CC1 [Compound 176, 2′-(2,3-Dimethyl-1H-indol-5-ylcarbamoyl)-6′-morpholin-4-yl-3,4,5,6-tetrahydro-2H-[1,4′]bipyridinyl-4-carboxylic acid ethyl ester]
< 1000 | CCc1c(C)[nH]c2ccc(NC(=O)c3cc(N4CCC(O)CC4)nc(N4CCOCC4)n3)cc12 [Compound 177, 6-(4-Hydroxy-piperidin-1-yl)-2-morpholin-4-yl-pyrimidine-4-carboxylic acid (3-ethyl-2-methyl-1H-indol-5-yl)-amide]
< 1000 | CCc1c[nH]c2ccc(NC(=O)c3cc(N4CCC(C)CC4)nc(N4CCOCC4)n3)cc12 [Compound 178, 6-(4-Methyl-piperidin-1-yl)-2-morpholin-4-yl-pyrimidine-4-carboxylic acid (3-ethyl-1H-indol-5-yl)-amide]
< 1000 | CCc1c[nH]c2ccc(NC(=O)c3cc(N4CCCCC4)nc(N4CCOCC4)n3)cc12 [Compound 179, 2-Morpholin-4-yl-6-piperidin-1-yl-pyrimidine-4-carboxylic acid (3-ethyl-1H-indol-5-yl)-amide]
< 1000 | CCc1c(C)[nH]c2ccc(NC(=O)c3cc(N4CCC5(CC4)OCCO5)nc(N4CCOCC4)n3)cc12 [Compound 180, 6-(1,4-Dioxa-8-aza-spiro[4.5]dec-8-yl)-2-morpholin-4-yl-pyrimidine-4-carboxylic acid (3-ethyl-2-methyl-1H-indol-5-yl)-amide]
< 1000 | CCc1c[nH]c2ccc(NC(=O)c3cc(N4CCN(C(C)=O)CC4)cc(N4CCOCC4)n3)cc12 [Compound 181, 4-(4-Acetyl-piperazin-1-yl)-6-morpholin-4-yl-pyridine-2-carboxylic acid (3-ethyl-1H-indol-5-yl)-amide]
< 1000 | Cc1[nH]c2ccc(NC(=O)c3cc(N4CCCCC4)cc(N4CCOCC4)n3)cc2c1C [Compound 182, 6′-Morpholin-4-yl-3,4,5,6-tetrahydro-2H-[1,4′]bipyridinyl-2′-carboxylic acid (2,3-dimethyl-1H-indol-5-yl)-amide]
< 1000 | CCc1c(C)[nH]c2ccc(NC(=O)c3cc(N4CCC(C(N)=O)CC4)nc(N4CCOCC4)n3)cc12 [Compound 183, 6-(4-Carbamoyl-piperidin-1-yl)-2-morpholin-4-yl-pyrimidine-4-carboxylic acid (3-ethyl-2-methyl-1H-indol-5-yl)-amide]
< 1000 | O=C(Nc1ccc2[nH]c3c(c2c1)CCCC3)c1cc(N2CCC(O)CC2)nc(N2CCOCC2)n1 [Compound 184, 6-(4-Hydroxy-piperidin-1-yl)-2-morpholin-4-yl-pyrimidine-4-carboxylic acid (6,7,8,9-tetrahydro-5H-carbazol-3-yl)-amide]
< 1000 | O=C(Nc1ccc2[nH]c3c(c2c1)CCCC3)c1cc(N2CCC(O)CC2)cc(N2CCOCC2)n1 [Compound 185, 4-Hydroxy-6′-morpholin-4-yl-3,4,5,6-tetrahydro-2H-[1,4′]bipyridinyl-2′-carboxylic acid (6,7,8,9-tetrahydro-5H-carbazol-3-yl)-amide; compound with methanesulfonic acid]
< 1000 | Cc1c[nH]c2ccc(NC(=O)c3cc(N4CCC(O)CC4)nc(N4CCOCC4)n3)cc12 [Compound 187, 6-(4-Hydroxy-piperidin-1-yl)-2-morpholin-4-yl-pyrimidine-4-carboxylic acid (3-methyl-1H-indol-5-yl)-amide]
< 1000 | Cc1[nH]c2ccc(NC(=O)c3cc(N(C)CCO)nc(N4CCOCC4)n3)cc2c1C [Compound 189, N-(2,3-dimethyl-1H-indol-5-yl)-6-((2-hydroxyethyl)(methyl)amino)-2-morpholinopyrimidine-4-carboxamide]
